Measured values as given in PMC10975061, “Cellular Uptake and Transport Mechanism Investigations of PEGylated Niosomes for Improving the Oral Delivery of Thymopentin” (Pharmaceutics, 2024).
Like-named read-outs stand apart in the source and are kept apart here. Peptide text beside a SMILES is read from it.

Experiments:
[1] = system: Caco-2 and HT-29 co-cultured cells; assay: MTT cytotoxicity (cell viability) assay
Procedure: MTT assay was used for the cytotoxicity study. […] The DMEM was discarded, and the Caco-2 and HT-29 co-cultured cells were washed with PBS before introducing TP5 test samples. […] Subsequently, 20 μL of MTT (5 mg/mL) was added, and the cells were incubated for an additional 4 h. Dimethyl sulfoxide (DMSO) was introduced to dissolve the formazan crystals, and the absorbance at 570 nm was measured using a microplate UV-Vis spectrophotometer (SpectraMax® Plus, Molecular Devices, San Jose, CA, USA). The percentage of cell viability was calculated in comparison to the untreated control group.
For each test sample group and at every time point over the course of three days, cell viability was computed. The outcomes were consolidated using the SoftMax Pro v5 software system through Equation (1). (1) V=A/A0×100% where V is the cell viability, A is sample absorbance, and A0 is control absorbance.
The concentration of these selected inhibitors and enhancers was screened by cytotoxicity using Caco-2 and HT-29 co-cultured cells by MTT assay. Then, these inhibitors and enhancers with safe concentrations were added to the AP side with a 0.5 mL 1 mg/mL solution of TP5 and TP5-PEG-niosomes, respectively. All inhibitors were dissolved in dimethyl sulfoxide and diluted with HBSS. The transport characteristics of TP5 and TP5-PEG-niosomes through Caco-2 and HT-29 co-cultured cell monolayers were expressed as the cumulative transported drug and transport rate. The transport rate (Flux) was denoted in μg/min/cm^2 and computed using the formula Flux = (dM/dt)/A, where dM/dt represents the cumulative amount of TP5 in the BL side per unit time (µg/min), and A is the surface area of the insert membrane (1.1 cm^2). […] The TEER values of the monolayers were assessed at 1 h intervals throughout the experimental duration, guaranteeing the integrity of the monolayers.

[2] = system: Caco-2 and HT-29 co-cultured cells; assay: Quantitative cellular uptake of TP5 (RP-HPLC and BCA protein assay), with inhibitors and low temperature; type: in vitro ADME, human
Procedure: Briefly, 5 mL of Caco-2 and HT-29 co-cultured cells’ suspension at a density of 10^5 cells/cm^2 was seeded onto 60 mm plastic dishes (Corning, New York, NY, USA), fed complete DMEM every 3 days and incubated at 37 °C in an atmosphere of 5% CO2 and 95% relative humidity. […] Then, 25 µL of the cell lysates from each well were subjected to a BCA protein assay (Thermo Scientific, Waltham, MA, USA) to determine the amount of cell protein. The entire protein concentration in each group was calculated based on the linearity equation obtained from the BSA standard curve. Then, cell lysates were centrifuged for 15 min at 14,000 rpm, and the supernatants were analyzed for the amount of uptake TP5 using the RP-HPLC method mentioned earlier. The uptake of TP5 by Caco-2 and HT-29 co-cultured cells was calculated and expressed as the amount of drug (ng) uptake per µg cell protein. One of the mechanisms for cellular uptake depends on concentration. […] The treated Caco-2 and HT-29 co-cultured cells were then scraped off into a 2 mL microcentrifuge tube containing 1.0 mL extraction solution (10% Triton X-100) and sonicated to accelerate cell lysis. Then, 25 µL of the cell lysates from each well were subjected to a BCA protein assay (Thermo Scientific, Waltham, MA, USA) to determine the amount of cell protein as mentioned above. Then, cell lysates were centrifuged for 15 min at 14,000 rpm, and the supernatants were analyzed for the amount of uptake TP5 using the RP-HPLC method mentioned above. The uptake of TP5 by Caco-2 and HT-29 co-cultured cells was calculated and expressed as the amount of drug (ng) uptake per µg cell protein. […] The incubation temperature of 4 °C was also tested. After the removal of the drug solution and formulation (4 h incubation), the dishes were immediately rinsed twice with ice-cold HBSS solution (5 mL). The treated Caco-2 and HT-29 co-cultured cells were then scraped off into a 2 mL microcentrifuge tube containing 1.0 mL extraction solution (10% Triton X-100) and sonicated to accelerate cell lysis. Furthermore, 25 µL of the cell lysates from each well were subjected to a BCA protein assay (Thermo Scientific, Waltham, MA, USA) to determine the amount of cell protein mentioned above. Then, cell lysates were centrifuged for 15 min at 14,000 rpm, and the supernatants were analyzed for the amount of cellular uptake TP5 using the RP-HPLC method mentioned above. The uptake of TP5 by Caco-2 and HT-29 co-cultured cells was calculated and expressed as the amount of drug (ng) uptake per µg cell protein.

[3] = system: Caco-2 and HT-29 co-cultured cell monolayers; assay: Transepithelial transport across Transwell monolayers (AP to BL), with inhibitors and enhancers; type: in vitro ADME, human
Procedure: (§1) Caco-2 and HT-29 co-cultured cells at a density of 10^5 cells/cm^2 were seeded on 12-well Insert Transwell® inserts (0.4 µm pore diameter, 1.1 cm^2 area, Corning, New York, NY, USA). Caco-2 and HT-29 co-cultured cells were incubated at 37 °C in an atmosphere of 5% CO2 and 95% relative humidity in complete DMEM. The medium was replaced every 3 days with 0.5 mL medium on the apical (AP) side and 1.5 mL on the basolateral (BL) side, as shown in Figure 2. The integrity of the co-cultured cell monolayer was assessed by monitoring transepithelial electrical resistance (TEER). TEER measurements were conducted using a Millicell-ERS Volt-Ohm meter connected to a pair of chopstick electrodes (Millipore Corp, Boston, MA, USA). […] TEER measurements were taken at 3-day intervals until the TEER values surpassed 350 Ω·cm^2 (around 24 days post-seeding in this study). The TEER calculation utilized the formula TEER = (Rm − Rb) × A, where Rm, Rb, and A represent the measured TEER values, TEER values of the blank transwell, and the membrane surface area of the transwell (1.13 cm^2), respectively. Caco-2 monolayers with TEER values exceeding 350 Ω·cm^2 were deemed to have acceptable integrity and were considered suitable for the transport study.
(§2) Before the transport experiments, Caco-2 and HT-29 co-cultured cell monolayers underwent equilibration with HBSS for 30 min and were subsequently aspirated. All transport studies were carried out at 37 °C. A 0.5 mL solution of TP5 and TP5-PEG-niosomes (0.1 mg TP5 per mL in HBSS) was introduced on the AP side, while the BL side of the inserts contained 1.5 mL of HBSS, as depicted in Figure 2. At 0, 60, 120, 240, and 360 min of incubation, 200 µL was withdrawn from the BL-receiving chamber and immediately replaced with an equal volume of pre-warmed HBSS (37 °C). The concentration of TP5 in the transport medium was analyzed using RP-HPLC.
(§3) TP5 transport mechanisms were investigated in the absence or presence of variable inhibitors or enhancers. […] […].

[4] = as above; type: in vitro ADME, human; settings: apical to basolateral, 6 h
Procedure: as §1, §2, §3

Structure (SMILES): CN(C)C(=O)CCSC(SCCC(=O)O)c1cccc(/C=C/c2ccc3ccc(Cl)cc3n2)c1 (stereo not shown) [MK-571]
- safe but still effective concentration for treatment ([1]; MTT, 72 h at 37 °C): 0.1 mM

Structure (SMILES): C[C@H](CCC(=O)NCCS(=O)(=O)O)[C@H]1CC[C@H]2[C@@H]3[C@H](O)C[C@@H]4C[C@H](O)CC[C@]4(C)[C@H]3C[C@H](O)[C@]12C [Sodium taurocholate]
- safe but still effective concentration for treatment ([1]; MTT, 72 h at 37 °C): 20 mM

Structure (SMILES): CC(C)[C@H](NC(=O)[C@H](CC(=O)O)NC(=O)[C@H](CCCCN)NC(=O)[C@@H](N)CCCN=C(N)N)C(=O)N[C@@H](Cc1ccc(O)cc1)C(=O)O [TP5, thymopentin] (H-RKDVY-OH)
- cytotoxicity (MTT cell viability) ([1]; TP5 solutions 0.005 to 10 mg/mL, 24, 48 and 72 h): not toxic
- cellular uptake amount with adsorptive-mediated endocytosis inhibitor ([2]; 1 mM protamine sulphate, 4 h, p < 0.005): significantly reduced
- cellular uptake amount at low temperature ([2]; 4 °C, 4 h): significantly decreased
- time of highest amount of cellular uptake drug ([2]; HPLC and BCA assay, time course 0.5-5 h): 2 h
- cellular uptake value ([2]; pure drug solution, in 2 h, maintained afterwards): 3.56 ± 1.13 ng/µg
- TP5 cumulative amount with EDTA ([3]; EDTA group, after the first 60 min): increase sharply
- cumulative amount of TP5 transported, comparison between groups ([3]; no treatment, AP to BL): no significant difference
- TP5 cumulative amount with sodium taurocholate ([3]; sodium taurocholate group, after the first 60 min): increase sharply
- Papp A→B ([4]; EDTA (10 mM), read-out: Papp values): 0.142 ± 0.0089 ×10⁻⁶ cm/s
- Papp A→B ([4]; chlorpromazine (10 μg/mL), read-out: Papp values): 0.0573 ± 0.0063 ×10⁻⁶ cm/s
- Papp A→B ([4]; lowest to highest over no treatment, inhibitors and enhancers, read-out: range of Papp values over all treatments): 0.043 to 0.134 ×10⁻⁶ cm/s
- Papp A→B ([4]; no treatment, read-out: Papp values): 0.0539 ± 0.0046 ×10⁻⁶ cm/s
- Papp A→B ([4]; silymarin (20 µM), read-out: Papp values): 0.043 ± 0.0055 ×10⁻⁶ cm/s
- Papp A→B ([4]; sodium azide (20 mM), read-out: Papp values): 0.059 ± 0.0052 ×10⁻⁶ cm/s
- Papp A→B ([4]; sodium taurocholate (20 mM), read-out: Papp values): 0.134 ± 0.0052 ×10⁻⁶ cm/s

Structure (SMILES): CN(C)CCCN1c2ccccc2Sc2ccc(Cl)cc21 [chlorpromazine]
- safe but still effective concentration for treatment ([1]; human, 72 h): 10 µg/mL

Structure (SMILES): [N-]=[N+]=[N-].[Na+] [sodium azide]
- safe but still effective concentration for treatment ([1]; MTT, 72 h at 37 °C): 20 mM
